Assay results: US11091428B2 (HAPLOGEN GMBH, priority 2016, dated 2021)

These molecules were tested against T1, PLA2G16 (Homo sapiens, UniProt P53816) (assay: Enzyme activity assay for PLA2G16 (Red/Green BODIPY PC-A2 fluorescence)). Settings: His-tagged PLA2G16, 4 min pre-incubation, 2 nM to 50 μM; read-out: IC50 values of the compounds determined in the enzyme activity assay for PLA2G16.
T1 construct: Hexa-His (N); made in house; host or cells: E. coli BL21(DE3)
T1 sequence (P53816 1-162): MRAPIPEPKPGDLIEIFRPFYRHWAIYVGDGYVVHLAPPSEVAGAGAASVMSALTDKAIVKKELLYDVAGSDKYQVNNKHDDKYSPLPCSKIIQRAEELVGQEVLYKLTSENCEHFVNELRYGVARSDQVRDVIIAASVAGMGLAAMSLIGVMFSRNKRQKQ
Type: biochemical
Text: A cDNA for PLA2G16(NM_007069) was custom-synthesized by Genscript (Piscataway, USA) and inserted into a pET-based bacterial expression vector [Moffatt, B. A. and Studier, F. W. (1986) J. Mol. Biol. 189, 113-130; Rosenberg, A. H., Lade, B. N., Chui, D., Lin, S., Dunn, J. J., and Studier, F. W. (1987) Gene 56, 125-135], enabling the expression of N-terminally Hexa-His-tagged PLA2G16. E. coli BL21(DE3) (Agilent) were transformed with pET-His-PLA2G16according to the manufacturer's instructions and plated on Carbenicillin-containing agar plates (final concentration: 100 μg/mL). A single clone was in occulated in 100 mL LB medium supplemented with 100 μg/mL Carbenicillin and the in occulated culture was grown at 37° C. overnight in a rotary shaker. On the next day, the bacterial culture was diluted in LB medium supplemented with 100 μg/mL Carbenicillin (30 mL overnight culture in 800 mL total culture volume). Bacteria were grown at 37° C. until the OD600 reached 0.6. Gene expression was induced by addition of 1 mM isopropyl-β-D-thiogalactopyranosid (IPTG) for 2 h at 18° C. Subsequently, bacteria were harvested by centrifugation (15 min; 10,000×g; 4° C.) and frozen at −80° C. The bacterial pellet was resuspended in Buffer A (50 mM Tris/HCl pH 7.5, 500 mM NaCl, 5% glycerol, 5 mM β-Mercaptoethanol and 1 mM PMSF) and lysed by addition of 1 mg/mL lysozyme (Sigma Aldrich) and 100 μg/mL DNasel-(Roche). The sample was incubated at 30° C. for 30 min to allow lysis to occur. Then, the lysate was cleared by centrifugation (15,000×g, 15 min, 4° C.) and incubated with 1.5 mL Ni-NTA agarose suspension (Qiagen) for 60 min at 4° C. The Ni-NTA agarose was washed with 10 mL Buffer A. Bound protein was eluted by applying a manual gradient of Buffer A supplemented with increasing concentrations of imidazole (Sigma Aldrich; 25/50/75/100/250 mM). Purified fractions were analyzed by SDS-PAGE followed by Coomassie staining to assess the purity.
Activity of the protein was assessed as follows: Red/Green BODIPY® PC-A2 (Invitrogen, 1 mM in DMSO) was mixed with equal volumes of 1,2-Dioleoyl-sn-glycero-3-phosphocholine (DOPC; Sigma Aldrich, 10 mM in Ethanol) and 1,2-Dioleoyl-sn-glycero-3-phospho-rac-(1-glycerol) (DOPG; Sigma Aldrich, 10 mM in Ethanol) and 0.5 volumes of Cholesterol (CHOL; Sigma Aldrich, 10 mM in Ethanol) and vortexed for 5 s. The mixture (Red/Green BODIPY® PC-A2/DOPC/DOPG/CHOL) was diluted 1:91.4 in activity assay buffer (50 mM Tris/HCl pH 8.5, 100 mM NaCl) using a small-orifice pipette tip under constant vortexing. In the following, this preparation will be referred to as the “substrate solution”.
In order to evaluate their inhibitory potential, compounds were dissolved at 10 mM concentration in DMSO and directly spotted into assay plates (Corning, Cat. No. 3576) using acoustic liquid transfer (Labcyte Echo 525). Each compound was spotted at increasing concentrations, ranging from 2 nM to 50 μM (concentration in the final assay volume). 50 μl of PLA2G16 enzyme solution (diluted in activity buffer, supplemented with 5 mM L-Glutathione; Sigma Aldrich) was pre-incubated with compounds for 4 min., followed by addition of 50 μl of substrate solution. Fluorescence was recorded immediately after substrate addition for a total time of 10 min. using a SpectraMax M5 multimode reader (Excitation wavelength: 480 nm, emission wavelength: 530 nm). The relative increase of fluorescence over time is referred to as the enzyme activity. Half-maximal inhibitory concentrations (IC50) were derived by non-linear regression analysis using the drc package in R (R Development. Core Team, 2005).

`COc1ccccc1N(C=O)[C@H](C)C(=O)C(=O)NCc1cccc(Cl)c1` (single isomer, unassigned) [FP 2] and `COc1ccccc1N(C=O)[C@@H](C)C(=O)C(=O)NCc1cccc(Cl)c1` (single isomer, unassigned) [FP 3] cannot be ordered by IC50: < 1000 nM for the first, < 1000 nM for the second.

`COc1cccc(N(C=O)C(C)C(=O)C(=O)NCc2cccc(Cl)c2)c1` (stereo not shown) [FP 4, N-[(3-Chlorophenyl)methyl]-3-[N-(3-methoxyphenyl)formamido]-2-oxo butanamide] and `COc1ccc(N(C=O)C(C)C(=O)C(=O)NCc2cccc(Cl)c2)cc1` (stereo not shown) [FP 5, N-[(3-Chlorophenyl)methyl]-3-[N-(4-methoxyphenyl)formamido]-2-oxobutanamide] cannot be ordered by IC50: < 1000 nM for the first, < 1000 nM for the second.

`CC(C(=O)C(=O)NCc1cccc(Cl)c1)N(C=O)c1ccccc1` (stereo not shown) [FP 6, N-[(3-Chlorophenyl)methyl]-2-oxo-3-(N-phenylformamido)butanamide] and `CC(C(=O)C(=O)NCc1cccc(Cl)c1)N(C=O)Cc1ccccc1` (stereo not shown) [FP 20, 3-(N-Benzylformamido)-N-[(3-chlorophenyl)methyl]-2-oxobutanamide] cannot be ordered by IC50: < 1000 nM for the first, < 1000 nM for the second.

First: COc1ccccc1N(C=O)C(C)(C)C(=O)C(=O)NCc1cccc(Cl)c1 [FP 9, N-[(3-Chlorophenyl)methyl]-3-[N-(2-methoxyphenyl)formamido]-3-methyl-2-oxobutanamide]
Second: COc1ccccc1N(C=O)CC(=O)C(=O)NCc1cccc(Cl)c1 [FP 19, N-[(3-Chlorophenyl)methyl]-3-[N-(2-methoxyphenyl)formamido]-2-oxopropanamide]
The IC50 of the first is higher: 1000 to 10000 nM for the first, < 1000 nM for the second. The second is the more potent here.

Compared with `COc1ccccc1N(C=O)C(C(=O)C(=O)NCc1cccc(Cl)c1)c1ccccc1` (stereo not shown) [FP 10, N-[(3-Chlorophenyl)methyl]-3-[N-(2-methoxyphenyl)formamido]-2-oxo-3-phenylpropanamide], `COc1ccccc1N(C=O)C(C)C(=O)C(=O)NCc1ccccc1` (stereo not shown) [FP 88, N-Benzyl-3-[N-(2-methoxyphenyl)formamido]-2-oxobutanamide] is lower in IC50: 1000 to 10000 nM for the first, < 1000 nM for the second. The second is the more potent here.

Compared with `COc1ccccc1N(C=O)C(C)C(=O)C(N)=O` (stereo not shown) [FP 14, 3-[N-(2-Methoxyphenyl)formamido]-2-oxobutanamide], `COc1ccccc1N(C=O)C(C)C(=O)C(=O)NCC1CCOCC1` (stereo not shown) [FP 103, 3-[N-(2-Methoxyphenyl)formamido]-m[(oxan-4-yl)methyl]-2-oxobutanamide] is lower in IC50: 1000 to 10000 nM for the first, < 1000 nM for the second. The second is the more potent here.

`CC(C(=O)C(=O)NCc1cccc(Cl)c1)N(C=O)C1CCCCC1` (stereo not shown) [FP 17, N-[(3-Chlorophenyl)methyl]-3-(N-cyclohexylformamido)-2-oxobutanamide] and `CC(C(=O)C(=O)NCc1ccccc1)N(C=O)C1CCCCC1` (stereo not shown) [FP 113, N-Benzyl-3-(N-cyclohexylformamido)-2-oxobutanamide] cannot be ordered by IC50: < 1000 nM for the first, < 1000 nM for the second.

First: CC(C)N(C=O)C(C)C(=O)C(=O)NCc1cccc(Cl)c1 (stereo not shown) [FP 21, N-[(3-Chlorophenyl)methyl]-2-oxo-3-[N-(propan-2-yl)formamido]butanamide]
Second: CC(C)N(C=O)C(C)C(=O)C(=O)NC(C)(C)c1cccc(Cl)c1 (stereo not shown) [FP 26, N-[2-(3-Chlorophenyl)propan-2-yl]-2-oxo-3-[N-(propan-2-yl)formamido]butanamide]
The IC50 of the first is lower: < 1000 nM for the first, 1000 to 10000 nM for the second.

Compared with `COc1ccccc1N(C=O)C(C)C(=O)C(=O)N1CCc2ccc(Cl)cc2C1` (stereo not shown) [FP 76, N-[4-(7-Chloro-1,2,3,4-tetrahydroisoquinolin-2-yl)-3,4-dioxobutan-2-yl]-N-(2-methoxy-phenyl)formamide], `COc1ccccc1N(C=O)C(C)C(=O)C(=O)N(C)Cc1cccc(Cl)c1` (stereo not shown) [FP 77, N-[(3-Chlorophenyl)methyl]-3-[N-(2-methoxyphenyl)formamido]-N-methyl-2-oxobutanamide] is lower in IC50: 10000 to 50000 nM for the first, < 1000 nM for the second.

First: COc1ccccc1NC(=O)C(=O)[C@H](C)N(C=O)c1ccccc1OC [FP 82, (3S)—N-(2-Methoxyphenyl)-3-[N-(2-methoxyphenyl)formamido]-2-oxobutanamide]
Second: COc1ccccc1N(C=O)C(C)C(=O)C(=O)NCc1ccccc1Cl (stereo not shown) [FP 86, N-[(2-Chlorophenyl)methyl]-3-[N-(2-methoxyphenyl)formamido]-2-oxobutanamide]
The IC50 of the first is higher: 1000 to 10000 nM for the first, < 1000 nM for the second. The second is the more potent here.

`COc1ccccc1N(C=O)C(C)C(=O)C(=O)NCc1cc(Cl)cc(Cl)c1` (stereo not shown) [FP 83, N-[(3,5-Dichlorophenyl)methyl]-3-[N-(2-methoxyphenyl)formamido]-2-oxobutanamide] and `COc1ccccc1N(C=O)C(C)C(=O)C(=O)NCc1cccc(C)c1` (stereo not shown) [FP 87, 3-[N-(2-Methoxyphenyl)formamido]-N-[(3-methylphenyl)methyl]-2-oxo butanamide] cannot be ordered by IC50: < 1000 nM for the first, < 1000 nM for the second.

`COc1ccccc1N(C=O)C(C)C(=O)C(=O)NC(C)c1cccc(Cl)c1` (stereo not shown) [FP 84, N-[1-(3-Chlorophenyl)ethyl]-3-[N-(2-methoxyphenyl)formamido]-2-oxobutanamide] and `COc1cccc(CNC(=O)C(=O)C(C)N(C=O)c2ccccc2OC)c1` (stereo not shown) [FP 85, 3-[N-(2-Methoxyphenyl)formamido]-N-[(3-methoxyphenyl)methyl]-2-oxobutanamide] cannot be ordered by IC50: < 1000 nM for the first, < 1000 nM for the second.

First: COc1ccccc1N1C(=O)CC[C@H]1C(=O)C(=O)NCc1cccc(Cl)c1 [FP 139, N-[(3-Chlorophenyl)methyl]-2-[(2S)-1-(2-methoxyphenyl)-5-oxopyrrolidin-2-yl]-2-oxoacetamide]
Second: COc1ccccc1N1C(=O)CC[C@H]1C(=O)C(=O)NCC1CC1 [FP 140, N-(cyclopropylmethyl)-2-[(2S)-1-(2-methoxyphenyl)-5-oxopyrrolidin-2-yl]-2-oxoacetamide]
The IC50 of the first is lower: 1000 to 10000 nM for the first, 10000 to 50000 nM for the second. The first is the more potent here.

`Cc1cc(C(=O)N(C)C(C)C(=O)C(=O)NCC2CCCCC2)no1` (stereo not shown) [FP 147, N-(Cyclohexylmethyl)-3-[N-methyl-1-(5-methyl-1,2-oxazol-3-yl)formamido]-2-oxobutanamide] and `COCC(=O)N(C)C(C)C(=O)C(=O)NCC1CCCCC1` (stereo not shown) [FP 148, N-(Cyclohexylmethyl)-3-(2-methoxy-N-methylacetamido)-2-oxobutanamide] cannot be ordered by IC50: < 1000 nM for the first, < 1000 nM for the second.

Compared with `CC(NC(=O)c1ccc(F)cc1)C(=O)C(=O)NCC1CC1` (stereo not shown) [FP 153, N-(Cyclopropylmethyl)-3-[(4-fluorophenyl)formamido]-2-oxobutanamide], `CC(C(=O)C(=O)NCC1CC1)N(C=O)C1CCC(F)(F)CC1` (stereo not shown) [FP 194, N-(Cyclopropylmethyl)-3-[N-(4,4-difluorocyclohexyl)formamido]-2-oxobutanamide] is lower in IC50: 1000 to 10000 nM for the first, < 1000 nM for the second.

Compared with `CC(C(=O)C(=O)NCC1CCCCC1)N(C)C(=O)CN(C)C` (stereo not shown) [FP 177, N-(Cyclohexylmethyl)-3-[2-(dimethylamino)-N-methylacetamido]-2-oxobutanamide], `CC(C(=O)C(=O)NCC1CCCCC1)N1CCCCC1=O` (stereo not shown) [FP 186, N-(Cyclohexylmethyl)-2-oxo-3-(2-oxopiperidin-1-yl)butanamide] is higher in IC50: 1000 to 10000 nM for the first, 10000 to 50000 nM for the second. The first is the more potent here.

Compared with `COc1ccccc1N(C(C)=O)C(C)C(=O)C(=O)NCc1cccc(Cl)c1` (stereo not shown) [FP 185, N-[(3-Chlorophenyl)methyl]-3-[N-(2-methoxyphenyl)acetamido]-2-oxobutanamide], `CC(C(=O)C(=O)NCC1CC1)N(CC1CCOCC1)S(C)(=O)=O` (stereo not shown) [FP 223, N-(Cyclopropylmethyl)-3-{N-[(oxan-4-yl)methyl]methanesulfonamido}-2-oxobutanamide] is higher in IC50: < 1000 nM for the first, 10000 to 50000 nM for the second. The first is the more potent here.
